Reference: patent US7132437B2, “Renal-selective biphenylalkyl 1H-substituted-1,2,4-triazole angiotensin II antagonists for treatment of hypertension” (G.D. Searle, priority 1990, dated 2006)

How the values were obtained:
[1] = target: T1, smooth muscle angiotensin II receptor; assay: Assay A: Angiotensin II Binding Activity; conditions: rat uterine membrane preparation, displacement of 125I-AII
T1 construct: Rat uterine membranes were prepared from fresh tissue
Method: Assay A: Angiotensin II Binding Activity
Compounds of Formula I were tested for ability to bind to the smooth muscle angiotensin II receptor using a rat uterine membrane preparation. […] Other chemicals were obtained from Sigma Chemical Co. This assay was carried out according to the method of Douglas et al [Endocrinology, 106, 120–124 (1980)]. Rat uterine membranes were prepared from fresh tissue. All procedures were carried out at 4° C. Uteri were stripped of fat and homogenized in phosphate-buffered saline at pH 7.4 containing 5 mM EDTA. The homogenate was centrifuged at 1500×g for 20 min., and the supernatant was recentrifuged at 100,000×g for 60 min. The pellet was resuspended in buffer consisting of 2 mM EDTA and 50 mM Tris-HCl (pH 7.5) to a final protein concentration of 4 mg/ml. […] The reaction was initiated by the addition of membrane protein and the mixture was incubated at 25° C. for 60 min. The incubation was terminated with ice-cold 50 mM Tris-HCl (pH 7.5) and the mixture was filtered to separate membrane-bound labelled peptide from the free ligand. The incubation tube and filter were washed with ice-cold buffer. Filters were assayed for radioactivity in a Micromedic gamma counter. Nonspecific binding was defined as binding in the presence of 10 μM of unlabelled AII. Specific binding was calculated as total binding minus nonspecific binding. […] Binding data were analyzed by a nonlinear least-squares curve fitting program.

rabbit aortic rings = assay: Assay B: In Vitro Vascular Smooth Muscle Response for AII; type: cell-based; conditions: for Assay B pA2 / Kb: antagonist at 10^-5 M, two values per cell = aorta rings from two rabbits; for Kb: Oryctolagus cuniculus, read-out: Assay B pA2 (converted)
Method: Assay B: In Vitro Vascular Smooth Muscle-Response for ATT
Compounds of Formula I were tested for antagonist activity in rabbit aortic rings. Male New Zealand white rabbits (2–2.5 kg) were sacrificed using an overdose of pentobarbital and exsanguinated via the carotid arteries. The thoracic aorta was removed, cleaned of adherent fat and connective tissue and then cut into 3-mm ring segments. The endothelium was removed from the rings by gently sliding a rolled-up piece of filter paper into the vessel lumen. The rings were then mounted in a water-jacketed tissue bath, maintained at 37° C., between moveable and fixed ends of a stainless steel wire with the moveable end attached to an FT03 Grass transducer coupled to a Model 7D Grass Polygraph for recording isometric force responses. The bath was filled with 20 ml of oxygenated (95% oxygen/5% carbon dioxide) Krebs solution of the following composition […]: 130 NaCl, 15 NaHCO3, 15 KCl, 1.2 NaH2PO4, 1.2 MgSO4, 2.5 CaCl2, and 11.4 glucose. The preparations were equilibrated for one hour before approximately one gram of passive tension was placed on the rings. Angiotensin II concentration-response curves were then recorded (3×10^−10 to 1×10–5 M). Each concentration of AII was allowed to elicit its maximal contraction, and then AII was washed out repeatedly for 30 minutes before rechallenging with a higher concentration of AII. Aorta rings were exposed to the test antagonist at 10^−5 M for 5 minutes before challenging with AII. Adjacent segments of the same aorta ring were used for all concentration-response curves in the presence or absence of the test antagonist. The effectiveness of the test compound was expressed in terms of pA2 values and were calculated according to H. O. Schild [Br. J. Pharmacol. Chemother., 2, 189–206 (1947)]. […] Each test antagonist was evaluated in aorta rings from two rabbits.

IC50 [1] | Compound | Assay B pA2 (rabbit aortic rings) | other results
10 nM | CCCCc1nc(CC(OCC)OCC)nn1Cc1ccc(-c2ccccc2-c2nnn[nH]2)cc1 (single isomer, unassigned) [Example 38, 5-[4′-[[5-butyl-3-(2,2-diethyoxyethyl)-1H-1,2,4-triazol-1-yl]methyl][1,1′-biphenyl]-2-yl]-1H-tetrazole] |  | 
6 nM | CCCc1nc(CN)nn1Cc1ccc(-c2ccccc2-c2nnn[nH]2)cc1 [Example 12, 5-[4′-[(3-aminomethyl-5-propyl-1H-1,2,4-triazol-1-yl)methyl][1,1′-biphenyl]-2-yl]-1H-tetrazole] |  | Kb (rabbit aortic rings): 2.19 nM
10 nM | CCCCc1nc(CC)nn1Cc1ccc(-c2ccccc2-c2nnn[nH]2)cc1 (single isomer, unassigned) [Example 39, 5-[4′-[(5-butyl-3-ethyl-1H-1,2,4-triazol-1-yl)methyl][1,1′-biphenyl]-2-yl]-1H-tetrazole] | 7.84 | 
83 nM | CCCCc1nc(CC)n(Cc2ccc(-c3ccccc3-c3nnn[nH]3)cc2)n1 (single isomer, unassigned) [Example 40, 5-[4′-[(3-butyl-5-ethyl-1H-1,2,4-triazol-1-yl)methyl][1,1′-biphenyl]-2-yl]-1H-tetrazole] |  | 
21 nM | CCCCc1nc(C(F)F)nn1Cc1ccc(-c2ccccc2-c2nnn[nH]2)cc1 (single isomer, unassigned) [Example 47, 5-[4′-[[5-butyl-3-(difluoromethyl)-1H-1,2,4-triazol-1-yl]methyl][1,1′-biphenyl]-2-yl]-1H-tetrazole] | 7.58 | 
10 nM | CCCCc1nc(C(OC)OC)nn1Cc1ccc(-c2ccccc2-c2nnn[nH]2)cc1 (single isomer, unassigned) [Example 24] | 7.73 | 
630 nM | CCCCc1nc(C)n(Cc2ccc(-c3ccccc3-c3nnn[nH]3)cc2)n1 (single isomer, unassigned) [Example 33, 5-[4′-[(3-butyl-5-methyl-1H-1,2,4-triazol-1-yl)methyl][1,1′-biphenyl]-2-yl]-1H-tetrazole] |  | 
14 nM | CCCCc1nc(CNC(C)=O)nn1Cc1ccc(-c2ccccc2-c2nnn[nH]2)cc1 [Example 31, N-[[5-butyl-1-[2′-(1H-tetrazol-5-yl)[1,1′-biphenyl]-4-ylmethyl]-1H-1,2,4-triazol-3-yl]methyl]acetamide] |  | 

More lines, now with the values behind:

Compound | IC50 [1] | Assay B pA2 (rabbit aortic rings) | other results
CCCCc1nc(Cl)n(Cc2ccc(-c3ccccc3C(=O)O)cc2)n1 (single isomer, unassigned) [Example 8, 4′-[(3-butyl-5-chloro-1H-1,2,4-triazol-1-yl)methyl][1,1′-biphenyl]-2-carboxylic acid] | 17000 nM |  | 
CCCCCCCCc1nc(CCCC)n(Cc2ccc(-c3ccccc3-c3nnn[nH]3)cc2)n1 (single isomer, unassigned) [Example 29, 5-[4′-[(5-butyl-3-octyl-1H-1,2,4-triazol-1-yl)methyl][1,1′-biphenyl]-2-yl]-1H-tetrazole] | 160 nM |  | 
CCCCc1nc(C=O)nn1Cc1ccc(-c2ccccc2-c2nnn[nH]2)cc1 [Example 49, 5-butyl-1-[2′-(1H-tetrazol-5-yl)[1,1′-biphenyl]-4-ylmethyl]-1H-1,2,4-triazole-3-carboxaldehyde] |  | 7.07 | 
CCCCc1nc(CCC2CCCCC2)n(Cc2ccc(-c3ccccc3-c3nnn[nH]3)cc2)n1 (single isomer, unassigned) [Example 42, 5-[4′-[[3-butyl-5-(2-cyclohexylethyl)-1H-1,2,4-triazol-1-yl]methyl][1,1′-biphenyl]-2-yl]-1H-tetrazole] | 370 nM | 6.26 | 
1,1-dimethylethyl [3-butyl-[1-2′-(1H-tetrazol-5-yl)[1,1′-biphenyl]-4-ylmethyl]-1H-1,2,4-triazol-5-yl]methylcarbamate [Example 34] | 640 nM |  | 
CCCCc1nc(CCC2CCCCC2)nn1Cc1ccc(-c2ccccc2-c2nnn[nH]2)cc1 (single isomer, unassigned) [Example 43, 5-[4′-[[5-butyl-3-(2-cyclohexylethyl)-1H-1,2,4-triazol-1-yl]methyl][1,1′-biphenyl]-2-yl]-1H-tetrazole] | 19 nM |  | 
CCCCc1nc(CCC)nn1Cc1ccc(-c2ccccc2C(=O)O)cc1 [Example 14, 4′-[(5-butyl-3-propyl-1H-1,2,4-triazol-1-yl)methyl]-[1,1′-biphenyl]-2-carboxylic acid] |  |  | Kb (rabbit aortic rings): 1.45 nM
CCCCc1ncnn1Cc1ccc(-c2ccccc2C(=O)O)cc1 (single isomer, unassigned) [Example 18, 4′-[(5-butyl-1H-1,2,4-triazol-1-yl)methyl][1,1′-biphenyl]-2-carboxylic acid] | 970 nM | 6.09 | 
CCCCc1nc(CCCC)n(Cc2ccc(-c3ccccc3C(=O)O)cc2)n1 [Example 2, 4′-[(3,5-dibutyl-1H-1,2,4-triazol-1-yl)methyl][1,1′-biphenyl]-2-carboxylic acid] |  |  | Kb (rabbit aortic rings): 42.7 nM
CCCCc1nc(CCCN)n(Cc2ccc(-c3ccccc3-c3nnn[nH]3)cc2)n1 [Example 71, 5-[4-[[3-butyl-5-(3-aminopropyl)-1H-1,2,4-triazol-1-yl]methyl][1,1′-biphenyl]-2-yl]-1H-tetrazole] |  |  | Assay B antagonist activity (symbol in pA2 column) (rabbit aortic rings): * (Antagonist activity not observed up to 10 μM of test compound.)
CCCCc1ncn(Cc2ccc(-c3ccccc3C(=O)O)cc2)n1 (single isomer, unassigned) [Example 19, 4′-[(3-butyl-1H-1,2,4-triazol-1-yl)methyl][1,1′-biphenyl]-2-carboxylic acid] | 12000 nM | 5.35 | 
CCCCc1nc(CCC(C)C)n(Cc2ccc(-c3ccccc3C(=O)O)cc2)n1 [Example 16] |  |  | Kb (rabbit aortic rings): 1.12 nM
CCCCc1nc(C(F)(F)CCC)n(Cc2ccc(-c3ccccc3C(=O)O)cc2)n1 [Example 11, 4′-[[3-butyl-5-(1,1-difluorobutyl)-1H-1,2,4-triazol-1-yl]methyl][1,1′-biphenyl]-2-carboxylic acid] | 160 nM |  | 
CCCCc1nc(C(F)F)n(Cc2ccc(-c3ccccc3-c3nnn[nH]3)cc2)n1 (single isomer, unassigned) [Example 48, 5-[4′-[[3-butyl-5-(difluoromethyl)-1H-1,2,4-triazol-1-yl]methyl][1,1′-biphenyl]-2-yl]-1H-tetrazole] | 680 nM |  | 
CCCCc1nc(CC(OCC)OCC)n(Cc2ccc(-c3ccccc3-c3nnn[nH]3)cc2)n1 (single isomer, unassigned) [Example 37, 5-[4′-[[3-butyl-5-(2,2-diethyoxyethyl)-1H-1,2,4-triazol-1-yl]methyl][1,1′-biphenyl]-2-yl]-1H-tetrazole] | 340 nM | 6.85 | 
CCCCc1nc(CCC(C)C)nn1Cc1ccc(-c2ccccc2C(=O)O)cc1 [Example 17, 4′-[(5-butyl-3-isopentyl-1H-1,2,4-triazol-1-yl]methyl)-[1,1′-biphenyl]-2-carboxylic acid] | 4 nM |  | Kb (rabbit aortic rings): 2.29 nM
CCCCc1nc(C(F)(F)C(F)(F)C(F)(F)F)nn1Cc1ccc(-c2ccccc2-c2nnn[nH]2)cc1 [Example 70, 5-[4′-[[3-(1,1,2,2,3,3,3-heptafluoropropyl)-5-butyl-1H-1,2,4-triazol-1-yl]methyl][1,1′-biphenyl]-2-yl]-1H-tetrazole] | 44 nM |  | 
CCCCCc1nc(CN)nn1Cc1ccc(-c2ccccc2-c2nnn[nH]2)cc1 [Example 13, 5-[4′-[(3-aminomethyl-5-pentyl-1H-1,2,4-triazol-1-yl)methyl][1,1′-biphenyl]-2-yl]-1H-tetrazole] |  |  | Kb (rabbit aortic rings): 2 nM
